In US11565005B2, “Dota-hapten compositions for anti-dota/anti-tumor antigen bispecific antibody pretargeted radioimmunotherapy” (MEMORIAL SLOAN KETTERING CANCER CENTER, priority 2017, dated 2023):
Marks after values point to notes of the source that are not given here.

Experiments:
[1] = system: GPA33-expressing SW1222 xenografts; assay: Anti-GPA33-DOTA-PRIT + [^225Ac]Proteus-DOTA biodistribution; details: for Blood uptake / SW1222 tumor uptake: pretargeted with huA33-C825 + clearing agent
Experimental: Biodistribution Experiments. A treatment cycle of anti-GPA33 DOTA-PRIT consisted of three separate intravenous injections via the tail vein: 0.25 mg of huA33-C825 antibody (described in WO2016/130539) at t=−28 h, then […] of clearing agent (500 kD-dextran-DOTA-Bn(Y)) at t=−4 h, and [^225Ac]Proteus-DOTA at t=0. For ex vivo biodistribution analysis following the radiohaptens or anti-HER2-C825/[^225Ac]Proteus-DOTA, mice were euthanized by CO2(g) asphyxiation, and the tumors and selected organs were harvested, rinsed with water, air-dried, weighed, and radioassayed by gamma scintillation counting (Perkin Elmer Wallac Wizard 3″, Perkin Elmer, Waltham, Mass.). Count rates were background- and decay-corrected, converted to activities using a system calibration factor specific for the isotope, normalized to the administered activity, and expressed as average percent injected dose per gram (% ID/g)±1 standard deviation. Differences in radioactivity concentration in tumor and various tissues were analyzed by Student's unpaired t test when appropriate.
Biodistribution Studies Following In vivo Targeting with Anti-GPA33-DOTA-PRIT+[^225Ac]Proteus-DOTA. [^225Ac]Proteus-DOTA was prepared to a final specific activity of 0.20 Ci/g or 274 Ci/mol and injected into groups of animals within 24-48 hours of preparation. Animals that had received injections of huA33-C825 and clearing agent were injected with […] of [^225Ac]Proteus-DOTA that was prepared approximately 24 hours prior. The following day, animals were sacrificed for ex vivo biodistribution assessment at 24 hours post injection of [^225Ac]Proteus-DOTA in tumors and select normal tissues. A control group of non-tumor bearing animals were injected with […] of [^225Ac]Proteus-DOTA that was prepared approximately 48 hours prior, and were sacrificed 1 hour post injection of [^225Ac]Proteus-DOTA for ex vivo biodistribution assessment in normal tissues. Carcass radioactivity was not collected during this study.
A control group of healthy nude mice were injected with [^225Ac]Proteus-DOTA only (198 pmol, 1.85 kBq [50 nCi]) to evaluate normal tissue uptake of the [^225Ac]Proteus-DOTA preparation.
These mice were sacrificed 24 h p.i. of [^225Ac]Proteus-DOTA for biodistribution assay. All animals were sacrificed at 24 h p.i. for biodistribution.

[2] = Dose-escalation toxicology study of [^225Ac]Proteus-DOTA in healthy nude mice; type: in vivo
Experimental: The maximum tolerated dose was not reached. Treated animal weights plotted as the percentage of pre-treatment baseline weight. Asterisk (*) indicates mouse required euthanasia or was discovered deceased. Data is presented as mean ±SD.
Toxicology study of [^225Ac]Pr-DOTA in healthy mice. A dose-escalation toxicity study was performed to evaluate any morbidity and histopathological damage attributed to [^225Ac]Proteus-DOTA. […] Unscheduled mortality (mice found dead or found sick and euthanized) were submitted for pathology. […] A total of three unscheduled mortalities occurred: 2/5 from the 0.5 μCi dose group; one on day 36 that was submitted for necropsy because of 20% weight loss-no gross pathologic or histopathologic lesions were observed, and no significant findings were observed on hematology and serum chemistry; and by the time the other mouse was found dead on day 144, necropsy was not possible. In addition, one mouse from group 8 μCi was euthanized after 123 days with a Staphylococcus bacterial infection. The significant findings in this mouse were histiocytic and eosinophilic myocardis, eosinophilic interstitial pneumonia, soft tissue hemorrhages, marked thrombocytopenia, and mild anemia with elevation of reticulocytes. The myocarditis, pnemonia, and mild anemia were related to some findings observed at scheduled sacrifice. Such thrombocytopenia with secondary hemorrhages was not observed in other mice in this study. Serum chemistry was unremarkable.

[3] = 24 h p.i., n = 3, listed as [^225Ac] Proteus-DOTA

## O=C([O-])CN1CCN(CC(=O)[O-])CCN(CC(=O)NCCOCCOCCOCCOCCNC(=S)Nc2ccc(CC3CN(CC(=O)[O-])CCN(CC(=O)[O-])CCN(CC(=O)[O-])CCN3CC(=O)[O-])cc2)CCN(CC(=O)[O-])CC1.[225Ac+3].[Lu+3] (stereo not shown) [[^225Ac]Proteus-DOTA]
[1]; 24 h p.i., n = 3
  Blood uptake: 0.94±0.26 % ID/g
  SW1222 tumor uptake: 16.71±2.95 % ID/g
[1]; [3]
  Blood uptake: 0.94 ± 0.26^a % ID/g
  SW1222 tumor uptake: 16.71 ± 2.95 % ID/g
[1]; pretargeted, 24 h p.i.
  Bone uptake: undetectable
  Tumor-to-tissue ratio, Blood: 17.9 ± 4.0
  Tumor-to-tissue ratio, Heart: 60.4 ± 35.8
  Tumor-to-tissue ratio, Kidneys: 15.5 ± 4.8
  Tumor-to-tissue ratio, Large Intestine: 147.5 ± 90.9
  Tumor-to-tissue ratio, Liver: 11.9 ± 4.2
  Tumor-to-tissue ratio, Lungs: 24.0 ± 13.5
  Tumor-to-tissue ratio, Muscle: 128.6 ± 129.2
  Tumor-to-tissue ratio, Small Intestine: 102.3 ± 67.1
  Tumor-to-tissue ratio, Spleen: 31.1 ± 31.3
  Tumor-to-tissue ratio, Stomach: 238.8 ± 150.7
  blood uptake (percent injected activity per gram of tissue): 0.94±0.26 % IA/g
  kidney uptake (percent injected activity per gram of tissue): 1.08±0.55 % IA/g
  liver uptake (percent injected activity per gram of tissue): 1.40±0.47 % IA/g
[1]; pretargeted, 24 h p.i., n = 3
  Bone uptake: 0.00 ± 0.00 % ID/g
  Heart uptake: 0.28 ± 0.28 % ID/g
  Kidneys uptake: 1.08±0.55 % ID/g
  Large Intestine uptake: 0.11 ± 0.12 % ID/g
  Liver uptake: 1.40 ± 0.82 % ID/g
  Lungs uptake: 0.70 ± 0.67 % ID/g
  Muscle uptake: 0.13 ± 0.23 % ID/g
  Small Intestine uptake: 0.16 ± 0.18 % ID/g
  Spleen uptake: 0.54 ± 0.93 % ID/g
  Stomach uptake: 0.07 ± 0.08 % ID/g
[1]; pretargeted, 24 h p.i., n = 3, listed as [^225Ac] Proteus-DOTA
  Kidneys uptake: 1.08 ± 0.55 % ID/g
[1]; pretargeted, SW1222, 24 h p.i.
  tumor uptake (percent injected activity per gram of tissue): 16.71±2.95 % IA/g
[2]; 0.25-8 μCi/mouse, 145 days
  toxicity (defined as >10% weight loss): no toxicity was observed
[2]; 0.25 μCi
  mice affected by histiocytic and eosinophilic inflammation: 0/5
[2]; 0.5 μCi
  mice affected by histiocytic and eosinophilic inflammation: 0/4
[2]; 0.5 μCi dose group (day 36 and day 144)
  unscheduled mortalities: 2/5
[2]; 1 μCi
  mice affected by histiocytic and eosinophilic inflammation: 0/5
[2]; 2 μCi
  mice affected by histiocytic and eosinophilic inflammation: 1/5
[2]; 4 μCi
  mice affected by histiocytic and eosinophilic inflammation: 1/5
[2]; 8 Ci group
  mice affected by histiocytic and eosinophilic inflammation: 3/5
[2]; 8 μCi group, after 123 days
  unscheduled mortalities (euthanized, Staphylococcus bacterial infection): one
[2]; 145 days, varying dose levels
  organ weights at necropsy: No significant group differences
[2]; all dose groups, 145 days
  unscheduled mortalities, total: three
[2]; any dose level, 145 days
  radiation-induced histologic organ damage at necropsy: no radiation-induced histologic organ damage
[2]; any dose level, n=29
  effect on serum chemistry: No effect
[2]; doses as high as 8 μCi (296 kBq)/mouse
  overall toxicity, acute or chronic radiation damage to normal tissues: nontoxic
[2]; highest dose group (8 μCi)
  decrease of red blood cells mass: ~10%
[2]; single i.v. doses 0.25-8 μCi/mouse
  maximum tolerated dose: not reached
